Here are results for three compounds from patent US20120059051A1, “ORAL COMPOSITION CONTAINING EGCG AND LYCOPENE” (DSM IP ASSET B.V., priority 2006, published 2012).

Experiment [1] relates to UVA-induced collagenases. As to conditions: literature statement; cited from earlier work.
In experiment [2] the test system is MMP-1. In words: Inhibition of UV-A induced expression of matrix metalloproteinase-1 (real time PCR) in primary human dermal fibroblasts. Format: cell-based. Particulars: skin fibroblasts; for % inhibition: inhibition of UV-A induced MMP-1 expression, 30 J/cm^2 UVA1; for MMP-1 expression relative to UV-A only treated cells: 30 J/cm^2 UVA1, MMP-1 RNA 24 hrs after irradiation, UV-A only = 100%. On the procedure: Primary human dermal fibroblasts were cultured in EMEM without glutamine (Earle's Minimum Essential Medium), supplemented with antibiotics/antimycotics, 2 mM L-glutamine and 7.5% fetal calf serum at 37° C.[…] and grown to 100% confluency. Forty-eight hours prior to irradiation the cells were preincubated with the desired substances in EMEM (with AB/AM, L-Glutamine and 2% FCS. After 24 hours the medium was replaced by fresh medium with substances (fresh prepared). For irradiation, the medium was removed and after 6 wash steps with phosphate-buffered saline (PBS) replaced by phosphate-buffered saline (PBS). The plate was then exposed to 30 J/cm^2 UVA1. The UVA1 output was approximately 150 mW/cm^2. After irradiation the phosphate-buffered saline in the cell microplate was exchanged against culture medium (+7.5% FCS) with the substances (fresh prepared) and the cells were incubated in a CO2-incubator for further 24 hrs (MMP-1 determination). The culture medium was removed, the cells were rinsed with phosphate-buffered saline and the whole plate was frozen in liquid nitrogen. Total RNA was isolated using RNeasy Total RNA Kits (Qiagen, Hilden; Germany). The RNA concentration was determined via photometric measurement at 260/280. Aliquots of total RNA (75 ng) were applied for cDNA-Synthesis using Superscript™ First-Strand synthesis system for RT-PCR. Two samples for each compound were analyzed. The PCR reactions were carried out on an Opticon 1 (MJ Research, Waltham, Mass., USA) using SYBR Green® PCR Master Mix (Applied Biosystems, Darmstadt, Germany). For comparison of relative expression in real time PCR control cells and treated cells the 2 ^(−delta delta C(T)) method was used.
In general terms: Quantitative PCR measures a nucleic acid by following its amplification.

Experiment [3] relates to UVA-induced MMPI. As to conditions: literature statement; increase only prevented in combination with vitamin E; cited from earlier work.
Experiment [4] relates to skin collagenases. Particulars: literature statement; cited from earlier work.

`CC1=C(/C=C/C(C)=C/C=C/C(C)=C/C=C/C=C(C)/C=C/C=C(C)/C=C/C2=C(C)CCCC2(C)C)C(C)(C)CCC1` [betacarotene]: the “effect on UVA-induced collagenases” value in experiment [1] was “repress”.
The % inhibition is the change of the read-out against control, counted positive when it falls. The low end stands for a response near the control, the high end for a response far below the control. Turning to `CC(C)=CCC/C(C)=C/C=C/C(C)=C/C=C/C(C)=C/C=C/C=C(C)/C=C/C=C(C)/C=C/C=C(\C)CCC=C(C)C` [Lycopene, lycopene], in experiment [2], the “% inhibition” value was 65% and the “MMP-1 expression relative to UV-A only treated cells” value is 35%. Besides, the “effect on UVA-induced MMPI” value in experiment [3] is reported as “further increase”.
Turning to (−)-epigallocatechin gallate [EGCG], the “effect on various skin collagenases” value in experiment [4] was “suppress”. Moreover, in experiment [2], the “% inhibition” value amounted to 13% and the “MMP-1 expression relative to UV-A only treated cells” value stood at 87%.
